According to patent publication US9107415B2, “2-(substituted-phenyl)-cyclopentane-1,3-dione compounds, and derivatives thereof” (Syngenta Limited, priority 2011, dated 2015):

Assays:
Assay type in all cases: in vivo
Lolium perenne (LOLPE) = test: Biological Example 1 glasshouse screen, post-emergence herbicidal activity; settings: 312 h, read-out: LOLPE percentage phytotoxicity
Outline: (§1)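 Pots in a glasshouse (24/16°C day/night, 14 h light, 65% humidity) were sprayed one day after sowing (pre-emergence) or after 8 days (post-emergence), using acetone/water (50:50) with 0.5% Tween 20. Phytotoxicity was scored visually as % damage (0-100) 13 days after application.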

Avena fatua (AVEFA) [1] = test: as above; settings: 312 h, read-out: AVEFA percentage phytotoxicity
Outline: as §1

[2] = tested on: grassy monocotyledonous weeds such as Lolium, Alopecurus, Echinochloa and/or Avena; test: Post-emergence herbicidal activity on grassy monocotyledonous weeds, summary statements (Biological Examples 1 to 4)
[3] = tested on: Echinochloa crus-galli (ECHCG); test: Biological Example 1 glasshouse screen, post-emergence herbicidal activity; settings: 312 h, read-out: ECHCG percentage phytotoxicity
Outline: (§2)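 Potted test species received a foliar or soil spray of active ingredient in acetone/water (50:50), 0.5% Tween 20, at 1 or 8 days after sowing for pre- and post-emergence respectively. Percentage phytotoxicity was assessed by eye after 13 days.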

[4] = tested on: Alopecurus myosuroides (ALOMY); test: as above; settings: 312 h, read-out: ALOMY percentage phytotoxicity
Outline: as §2

Poa annua (POAAN) = test: Biological Example 4A (previously-formulated compounds) post-emergence herbicidal activity on grassy weeds; settings: 14 DAA, EC formulation, mean of two
Protocol: (§3) Seeds of a variety of test species are sown in standard soil in pots. After cultivation for 14 days under controlled conditions in a glasshouse (at 22/16°C., day/night; 16 hours light; 65% humidity), the plants are sprayed with the test compounds. The test plants are then grown on under controlled conditions in the glasshouse (at 22/16°C., day/night; 16 hours light; 65% humidity) and are watered twice daily. After 14 days the test is evaluated visually (100%=total damage to plant; 0%=no damage to plant). Post-emergence herbicidal activity (phytotoxicity) data, on certain grassy monocotyledonous weeds and cereal crops in a glasshouse, are measured 14 days after application of the herbicide (14 DAA), inter alia for post-emergence application rates of 30 or 60 g/ha of the test herbicide, with or without 50 g/ha of cloquintocet-mexyl safener applied at substantially the same time as the herbicide.
(§4) Herbicidal activity (phytotoxicity) is evaluated visually, and an assessed percentage phytotoxicity score is given for each herbicidal application on each plant species (with 100%=total damage to plant; 0%=no damage to plant). Two repetitions are made for each experiment and the mean herbicidal activity (phytotoxicity) data is reported.
(§5) Biological Example 4A is used on previously-formulated compounds, typically compounds previously formulated as an emulsifiable concentrates (EC), wherein the EC contains the herbicidal compound under test dissolved in one or more organic solvents, and wherein the EC also contains one or more surfactants or emulsifiers. In the test method, the EC containing the herbicide (plus a cloquintocet-mexyl formulation if this is also present) is generally diluted with water to form an emulsion, and the resulting emulsion is sprayed onto the emerged weed and/or crop plants.
(§6) For the testing of Compounds A-5 and A-6, each of these compounds was separately formulated into an emulsifiable concentrate containing 10% w/w of the herbicidal compound, 9% w/w of castor oil ethoxylate (an emulsifier, present as Emulsogen™EL360), 6% w/w of calcium dodecylbenzenesulfonate (linear) (an emulsifier, present as Nansa™EVM 63B), 3% w/w of tristyrylphenol ethoxylate having 16 moles of ethoxylation per mole of molecule (an emulsifier, present as Soprophor™BSU), 10% w/w of benzyl benzoate (as solvent), 20% w/w of 1-methyl-2-pyrrolidone (as solvent), and the remainder of N-octyl-2-pyrrolidone (as solvent). The solvents and surfactants/emulsifiers were first mixed together, to form a “blank” EC, and the herbicidal compound was then added to and dissolved in this solvent and emulsifier mixture to prepare the emulsifiable concentrate, to give an EC formulation/composition containing approximately 100 g/L of active herbicidal compound.
(§7) In the tests of Compounds A-5 and A-6, the cloquintocet-mexyl was pre-formulated as a formulation/composition containing 10% w/w cloquintocet-mexyl, 6% w/w Emulsogen™ EL360 (as emulsifier), 4% w/w Nansa™EVM 63B (as wetting agent), 1% w/w Drapex™39 (epoxidised soybean oil), 20% w/w 1-methyl-2-pyrrolidone (as solvent), and the remainder as Solvesso™200ND (a mixture of heavy aromatic hydrocarbons, as a solvent).
(§8) Test plants: Avena fatua (AVEFA), Lolium multiflorum (LOLMU), Setaria viridis (SETVI), Poa annua (POAAN), Alopecurus myosuroides (ALOMY). All five of these are grassy monocotyledonous weeds.

Setaria viridis (SETVI) = test: as above; settings: 14 DAA, EC formulation, mean of two
Protocol: as §3, §4, §5, §6, §7, §8

Avena fatua (AVEFA) [5] = test: as above; settings: 14 DAA, EC formulation, mean of two
Protocol: as §3, §4, §5, §6, §7, §8

[6] = tested on: Lolium multiflorum (LOLMU); test: as above; settings: 14 DAA, EC formulation, mean of two
Protocol: as §3, §4, §5, §6, §7, §8

[7] = tested on: Alopecurus myosuroides (ALOMY); test: as above; settings: 14 DAA, EC formulation, mean of two
Protocol: as §3, §4, §5, §6, §7, §8

Winter Wheat “Hereward” = test: Biological Example 4A post-emergence phytotoxicity on cereal crops; settings: 14 DAA, EC formulation, mean of two
Protocol: as §3, §4, §5, §6, §7

[8] = tested on: Spring Barley “Harrington”; test: as above; settings: 14 DAA, EC formulation, mean of two
Protocol: as §3, §4, §5, §6, §7

Winter Barley “Suzuka” = test: as above; settings: 14 DAA, EC formulation, mean of two
Protocol: as §3, §4, §5, §6, §7

Spring Wheat “Teal” = test: as above; settings: 14 DAA, EC formulation, mean of two
Protocol: as §3, §4, §5, §6, §7

[9] = 30 g/ha, cloquintocet-mexyl 0 g/ha
[10] = 30 g/ha, cloquintocet-mexyl 50 g/ha
[11] = 60 g/ha, cloquintocet-mexyl 0 g/ha
[12] = 60 g/ha, cloquintocet-mexyl 50 g/ha

CC#Cc1cc(C)c(C2C(=O)C[C@@H](Cc3ccccn3)C2=O)c(C)c1 (some centres unmarked) [Compound A-6]
pest or weed control at 250 g/ha (Lolium perenne (LOLPE)): 100% | pest or weed control at 250 g/ha (Avena fatua (AVEFA) [1]): 100% | post-emergence herbicidal activity against grassy monocotyledonous weeds, in words [2]: more potent herbicidal activity | pest or weed control at 250 g/ha [3]: 100% | pest or weed control at 250 g/ha [4]: 100% | POAAN % phytotoxicity (Poa annua (POAAN); [9]): 65% | POAAN % phytotoxicity (Poa annua (POAAN); [10]): 48% | POAAN % phytotoxicity (Poa annua (POAAN); [11]): 94% | POAAN % phytotoxicity (Poa annua (POAAN); [12]): 85% | SETVI % phytotoxicity (Setaria viridis (SETVI); [9]): 100% | SETVI % phytotoxicity (Setaria viridis (SETVI); [10]): 100% | SETVI % phytotoxicity (Setaria viridis (SETVI); [11]): 100% | SETVI % phytotoxicity (Setaria viridis (SETVI); [12]): 100% | AVEFA % phytotoxicity (Avena fatua (AVEFA) [5]; [9]): 98% | AVEFA % phytotoxicity (Avena fatua (AVEFA) [5]; [10]): 90% | AVEFA % phytotoxicity (Avena fatua (AVEFA) [5]; [11]): 100% | AVEFA % phytotoxicity (Avena fatua (AVEFA) [5]; [12]): 99% | LOLMU % phytotoxicity [6, 9]: 100% | LOLMU % phytotoxicity [6, 10]: 100% | LOLMU % phytotoxicity [6, 11]: 100% | LOLMU % phytotoxicity [6, 12]: 100% | ALOMY % phytotoxicity [7, 9]: 100% | ALOMY % phytotoxicity [7, 10]: 100% | ALOMY % phytotoxicity [7, 11]: 100% | ALOMY % phytotoxicity [7, 12]: 100% | Winter Wheat “Hereward” phytotoxicity (%) (Winter Wheat “Hereward”; [9]): 65% | Winter Wheat “Hereward” phytotoxicity (%) (Winter Wheat “Hereward”; [10]): 15% | Winter Wheat “Hereward” phytotoxicity (%) (Winter Wheat “Hereward”; [11]): 80% | Winter Wheat “Hereward” phytotoxicity (%) (Winter Wheat “Hereward”; [12]): 20% | Spring Barley “Harrington” phytotoxicity (%) [8, 9]: 95% | Spring Barley “Harrington” phytotoxicity (%) [8, 10]: 13% | Spring Barley “Harrington” phytotoxicity (%) [8, 11]: 98% | Spring Barley “Harrington” phytotoxicity (%) [8, 12]: 48% | Winter Barley “Suzuka” phytotoxicity (%) (Winter Barley “Suzuka”; [9]): 93% | Winter Barley “Suzuka” phytotoxicity (%) (Winter Barley “Suzuka”; [10]): 10% | Winter Barley “Suzuka” phytotoxicity (%) (Winter Barley “Suzuka”; [11]): 98% | Winter Barley “Suzuka” phytotoxicity (%) (Winter Barley “Suzuka”; [12]): 25% | Spring Wheat “Teal” phytotoxicity (%) (Spring Wheat “Teal”; [9]): 78% | Spring Wheat “Teal” phytotoxicity (%) (Spring Wheat “Teal”; [10]): 25% | Spring Wheat “Teal” phytotoxicity (%) (Spring Wheat “Teal”; [11]): 94% | Spring Wheat “Teal” phytotoxicity (%) (Spring Wheat “Teal”; [12]): 45%
